Source: patent US11498899B2, “Nitrone herbicides” (FMC Corporation, priority 2016, dated 2022)

Key:
[1] = system: barnyardgrass (Echinochloa crus-galli); assay: Test B flooded paddy test, visual rating 0-100; conditions: Flood, 250 g ai/ha, applied to paddy water, rated after 13 to 15 days
rice (Oryza sativa) = assay: Test B flooded paddy test, visual rating 0-100 (0 no effect, 100 complete control); conditions: Flood, 250 g ai/ha, applied to paddy water, rated after 13 to 15 days
[2] = system: galium (catchweed bedstraw, Galium aparine); assay: Test A postemergence, visual injury rating 0-100; format: in vivo; conditions: 0 to 100 scale
[3] = system: ragweed (common ragweed, Ambrosia elatior); assay: Test A postemergence, visual injury rating 0-100; format: in vivo; conditions: 0 to 100 scale
kochia (Kochia scoparia) [4] = assay: Test A postemergence, visual injury rating 0-100; format: in vivo; conditions: 0 to 100 scale
[5] = system: blackgrass (Alopecurus myosuroides); assay: Test A postemergence, visual injury rating 0-100; format: in vivo; conditions: 0 to 100 scale
[6] = system: ryegrass, Italian (Italian ryegrass, Lolium multiflorum); assay: Test A postemergence, visual injury rating 0-100; format: in vivo; conditions: 0 to 100 scale
[7] = system: wheat (Triticum aestivum); assay: Test A postemergence, visual injury rating 0-100; format: in vivo; conditions: 0 to 100 scale
[8] = system: pigweed (Amaranthus retroflexus); assay: Test A postemergence, visual injury rating 0-100; format: in vivo; conditions: 0 to 100 scale
corn (Zea mays) = assay: Test A postemergence, visual injury rating 0-100; format: in vivo; conditions: 0 to 100 scale
[9] = system: foxtail, giant (giant foxtail, Setaria faberii); assay: Test A postemergence, visual injury rating 0-100; format: in vivo; conditions: 0 to 100 scale
[10] = system: barnyardgrass (Echinochloa crus-galli); assay: Test A postemergence, visual injury rating 0-100; format: in vivo; conditions: 0 to 100 scale
[11] = system: ragweed (common ragweed, Ambrosia elatior); assay: Test A preemergence, visual injury rating 0-100; format: in vivo
kochia (Kochia scoparia) [12] = assay: Test A preemergence, visual injury rating 0-100; format: in vivo
[13] = system: ryegrass, Italian (Italian ryegrass, Lolium multiflorum); assay: Test A preemergence, visual injury rating 0-100; format: in vivo
[14] = system: pigweed (Amaranthus retroflexus); assay: Test A preemergence, visual injury rating 0-100; format: in vivo
[15] = system: foxtail, giant (giant foxtail, Setaria faberii); assay: Test A preemergence, visual injury rating 0-100; format: in vivo
[16] = system: barnyardgrass (Echinochloa crus-galli); assay: Test A preemergence, visual injury rating 0-100 (0 no effect, 100 complete control); format: in vivo
[17] = system: ducksalad (Heteranthera limosa); assay: Test B flooded paddy test, visual rating 0-100; conditions: Flood, 250 g ai/ha, applied to paddy water, rated after 13 to 15 days

SMILES	Barnyardgrass plant response rating (0 to 100 scale) [1]	Rice plant response rating (0 to 100 scale) (rice (Oryza sativa))	Galium plant response rating ([2]; 125 g ai/ha)	Galium plant response rating ([2]; 500 g ai/ha)	Ragweed plant response rating ([3]; 125 g ai/ha)	Ragweed plant response rating ([3]; 500 g ai/ha)	Kochia plant response rating (kochia (Kochia scoparia) [4]; 125 g ai/ha)	Kochia plant response rating (kochia (Kochia scoparia) [4]; 500 g ai/ha)	Blackgrass plant response rating ([5]; 125 g ai/ha)	Blackgrass plant response rating ([5]; 500 g ai/ha)	Ryegrass, Italian plant response rating ([6]; 125 g ai/ha)	Ryegrass, Italian plant response rating ([6]; 500 g ai/ha)	Wheat plant response rating ([7]; 125 g ai/ha)	Wheat plant response rating ([7]; 500 g ai/ha)	Pigweed plant response rating ([8]; 125 g ai/ha)	Pigweed plant response rating ([8]; 500 g ai/ha)	Corn plant response rating (corn (Zea mays); 125 g ai/ha)	Corn plant response rating (corn (Zea mays); 500 g ai/ha)	Foxtail, Giant plant response rating ([9]; 125 g ai/ha)	Foxtail, Giant plant response rating ([9]; 500 g ai/ha)	also measured
COc1cccc(C2CC(C)=[N+]([O-])C2C(=O)Nc2cccc(F)c2F)n1 (racemic) [Compound 67]	15	15	0	0	0	0	0	0	0	0	0	0	0	0	0	0	0	0	0	10	Barnyardgrass plant response rating ([10]; 125 g ai/ha): 0; Barnyardgrass plant response rating ([10]; 500 g ai/ha): 0; Ragweed plant response rating (0 to 100 scale) ([11]; 125 g ai/ha): 0; Ragweed plant response rating (0 to 100 scale) ([11]; 500 g ai/ha): 0; Kochia plant response rating (0 to 100 scale) (kochia (Kochia scoparia) [12]; 125 g ai/ha): 0; Kochia plant response rating (0 to 100 scale) (kochia (Kochia scoparia) [12]; 500 g ai/ha): 0; Ryegrass, Italian plant response rating (0 to 100 scale) ([13]; 125 g ai/ha): 0; Ryegrass, Italian plant response rating (0 to 100 scale) ([13]; 500 g ai/ha): 0; Pigweed plant response rating (0 to 100 scale) ([14]; 125 g ai/ha): 0; Pigweed plant response rating (0 to 100 scale) ([14]; 500 g ai/ha): 0; Foxtail, Giant plant response rating (0 to 100 scale) ([15]; 125 g ai/ha): 0; Foxtail, Giant plant response rating (0 to 100 scale) ([15]; 500 g ai/ha): 60; Barnyardgrass plant response rating (0 to 100 scale) ([16]; 125 g ai/ha): 0; Barnyardgrass plant response rating (0 to 100 scale) ([16]; 500 g ai/ha): 70; Ducksalad plant response rating (0 to 100 scale) [17]: 65
CC1=[N+]([O-])C(C(=O)Nc2cccc(F)c2F)C(c2ccc(F)cc2Oc2ncc(F)cn2)C1 (racemic) [Compound 68]	0	0	30	40	0	0	0	30	70	70	20	90	30	80	0	30	20	90	0	90	Barnyardgrass plant response rating ([10]; 125 g ai/ha): 0; Barnyardgrass plant response rating ([10]; 500 g ai/ha): 40; Ragweed plant response rating (0 to 100 scale) ([11]; 125 g ai/ha): 0; Ragweed plant response rating (0 to 100 scale) ([11]; 500 g ai/ha): 70; Kochia plant response rating (0 to 100 scale) (kochia (Kochia scoparia) [12]; 125 g ai/ha): 0; Kochia plant response rating (0 to 100 scale) (kochia (Kochia scoparia) [12]; 500 g ai/ha): 30; Ryegrass, Italian plant response rating (0 to 100 scale) ([13]; 125 g ai/ha): 20; Ryegrass, Italian plant response rating (0 to 100 scale) ([13]; 500 g ai/ha): 90; Pigweed plant response rating (0 to 100 scale) ([14]; 125 g ai/ha): 0; Pigweed plant response rating (0 to 100 scale) ([14]; 500 g ai/ha): 0; Foxtail, Giant plant response rating (0 to 100 scale) ([15]; 125 g ai/ha): 50; Foxtail, Giant plant response rating (0 to 100 scale) ([15]; 500 g ai/ha): 100; Barnyardgrass plant response rating (0 to 100 scale) ([16]; 125 g ai/ha): 20; Barnyardgrass plant response rating (0 to 100 scale) ([16]; 500 g ai/ha): 100; Ducksalad plant response rating (0 to 100 scale) [17]: 0
CC1=[N+]([O-])C(C(=O)Nc2cccc(F)c2F)C(c2ccc(C)c(Br)c2)C1 (racemic) [Compound 71]	0	0	30	50	0	50	10	50	40	70	60	80	20	70	20	10	70	90	40	60	Barnyardgrass plant response rating ([10]; 125 g ai/ha): 80; Barnyardgrass plant response rating ([10]; 500 g ai/ha): 90; Ragweed plant response rating (0 to 100 scale) ([11]; 125 g ai/ha): 0; Ragweed plant response rating (0 to 100 scale) ([11]; 500 g ai/ha): 60; Kochia plant response rating (0 to 100 scale) (kochia (Kochia scoparia) [12]; 125 g ai/ha): 10; Kochia plant response rating (0 to 100 scale) (kochia (Kochia scoparia) [12]; 500 g ai/ha): 80; Ryegrass, Italian plant response rating (0 to 100 scale) ([13]; 125 g ai/ha): 30; Ryegrass, Italian plant response rating (0 to 100 scale) ([13]; 500 g ai/ha): 90; Pigweed plant response rating (0 to 100 scale) ([14]; 125 g ai/ha): 0; Pigweed plant response rating (0 to 100 scale) ([14]; 500 g ai/ha): 40; Foxtail, Giant plant response rating (0 to 100 scale) ([15]; 125 g ai/ha): 80; Foxtail, Giant plant response rating (0 to 100 scale) ([15]; 500 g ai/ha): 90; Barnyardgrass plant response rating (0 to 100 scale) ([16]; 125 g ai/ha): 90; Barnyardgrass plant response rating (0 to 100 scale) ([16]; 500 g ai/ha): 90; Ducksalad plant response rating (0 to 100 scale) [17]: 0
CC1=[N+]([O-])C(C(=O)Nc2cccc(F)c2F)C(c2ccc(C)c(Cl)c2)C1 (racemic) [Compound 72]	40	0	50	50	0	50	0	40	60	70	30	70	30	80	10	30	40	70	50	80	Barnyardgrass plant response rating ([10]; 125 g ai/ha): 90; Barnyardgrass plant response rating ([10]; 500 g ai/ha): 90; Ragweed plant response rating (0 to 100 scale) ([11]; 125 g ai/ha): 20; Ragweed plant response rating (0 to 100 scale) ([11]; 500 g ai/ha): 90; Kochia plant response rating (0 to 100 scale) (kochia (Kochia scoparia) [12]; 125 g ai/ha): 20; Kochia plant response rating (0 to 100 scale) (kochia (Kochia scoparia) [12]; 500 g ai/ha): 80; Ryegrass, Italian plant response rating (0 to 100 scale) ([13]; 125 g ai/ha): 30; Ryegrass, Italian plant response rating (0 to 100 scale) ([13]; 500 g ai/ha): 90; Pigweed plant response rating (0 to 100 scale) ([14]; 125 g ai/ha): 30; Pigweed plant response rating (0 to 100 scale) ([14]; 500 g ai/ha): 30; Foxtail, Giant plant response rating (0 to 100 scale) ([15]; 125 g ai/ha): 90; Foxtail, Giant plant response rating (0 to 100 scale) ([15]; 500 g ai/ha): 90; Barnyardgrass plant response rating (0 to 100 scale) ([16]; 125 g ai/ha): 80; Barnyardgrass plant response rating (0 to 100 scale) ([16]; 500 g ai/ha): 90; Ducksalad plant response rating (0 to 100 scale) [17]: 15
